The record followed here is ChEMBL document CHEMBL1201862, “PubChem BioAssay data set” (2004).

Structures are written as SMILES. Calls of active or inactive are those of the source. A value given as a limit tells only on which side of the number the result lay.

Test [1] deals with SUMO E1/E2 (Homo sapiens, UniProt P63279+Q9UBE0+Q9UBT2). Nature of the test: SAR analysis of SUMOylation using HTRF in an in-Vitro dose response assay. [Related pubchem assays (depositor defined):AID2006, AID2011, AID2018, AID2069, AID2658]. It is filed as functional.
SUMO E1/E2, sequence (Q9UBE0 whole entry): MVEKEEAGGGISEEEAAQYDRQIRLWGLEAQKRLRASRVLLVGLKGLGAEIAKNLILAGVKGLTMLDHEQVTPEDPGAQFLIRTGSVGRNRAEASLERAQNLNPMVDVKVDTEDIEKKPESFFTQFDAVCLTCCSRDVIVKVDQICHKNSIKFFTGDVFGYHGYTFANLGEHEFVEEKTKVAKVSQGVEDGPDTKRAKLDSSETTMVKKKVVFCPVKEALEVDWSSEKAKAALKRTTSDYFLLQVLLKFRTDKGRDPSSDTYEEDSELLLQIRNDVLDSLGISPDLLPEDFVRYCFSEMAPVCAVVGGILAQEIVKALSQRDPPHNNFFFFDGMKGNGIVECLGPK
SUMO E1/E2, sequence (Q9UBT2 whole entry): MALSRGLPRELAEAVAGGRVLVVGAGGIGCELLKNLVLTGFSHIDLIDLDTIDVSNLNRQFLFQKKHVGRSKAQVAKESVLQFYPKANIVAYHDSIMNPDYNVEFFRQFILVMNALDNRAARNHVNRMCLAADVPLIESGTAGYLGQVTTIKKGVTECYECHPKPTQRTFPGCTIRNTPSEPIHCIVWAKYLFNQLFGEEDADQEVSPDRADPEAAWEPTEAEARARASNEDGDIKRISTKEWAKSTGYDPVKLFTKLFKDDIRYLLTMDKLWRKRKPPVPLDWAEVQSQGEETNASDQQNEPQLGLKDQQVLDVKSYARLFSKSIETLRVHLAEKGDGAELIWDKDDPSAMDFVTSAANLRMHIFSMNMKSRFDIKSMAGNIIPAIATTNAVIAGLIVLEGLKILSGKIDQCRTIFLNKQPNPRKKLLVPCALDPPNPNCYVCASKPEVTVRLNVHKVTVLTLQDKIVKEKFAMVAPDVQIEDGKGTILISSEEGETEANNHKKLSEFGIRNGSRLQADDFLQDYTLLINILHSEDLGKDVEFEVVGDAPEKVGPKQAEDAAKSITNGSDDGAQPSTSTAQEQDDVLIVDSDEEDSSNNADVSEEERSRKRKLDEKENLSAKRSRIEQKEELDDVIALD
SUMO E1/E2, sequence (P63279 whole entry): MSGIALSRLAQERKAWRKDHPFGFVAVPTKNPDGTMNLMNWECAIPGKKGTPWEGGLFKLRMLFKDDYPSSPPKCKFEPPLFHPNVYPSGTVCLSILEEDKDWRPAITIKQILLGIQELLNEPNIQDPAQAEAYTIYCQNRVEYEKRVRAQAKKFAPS
In test [2] the target is T1, G-protein coupled receptor 35 (Homo sapiens, UniProt Q9HC97). Description: SAR analysis of Antagonists of the GPR35 Receptor using an Image-Based Assay - Set 6. [Related pubchem assays (depositor defined):AID2013, AID2026]. In kind it is functional.
T1 sequence (Q9HC97 whole entry): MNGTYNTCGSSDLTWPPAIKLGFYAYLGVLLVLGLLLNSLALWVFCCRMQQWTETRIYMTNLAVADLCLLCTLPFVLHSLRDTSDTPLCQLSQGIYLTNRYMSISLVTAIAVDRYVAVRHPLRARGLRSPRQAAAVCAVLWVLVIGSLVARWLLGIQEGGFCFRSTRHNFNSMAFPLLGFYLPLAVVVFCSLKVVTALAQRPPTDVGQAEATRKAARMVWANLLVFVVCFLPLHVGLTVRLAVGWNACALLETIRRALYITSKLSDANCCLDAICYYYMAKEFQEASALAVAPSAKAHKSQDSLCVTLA
The target in test [3] is T2, Cannabinoid receptor 1 (Homo sapiens, UniProt P21554). Description: SAR analysis of antagonists of the Cannabinoid Receptor 1 using an Image-Based Assay - Set 4. [Related pubchem assays (depositor defined):AID2013, AID2026]. In kind it is functional.
T2 sequence (P21554 whole entry): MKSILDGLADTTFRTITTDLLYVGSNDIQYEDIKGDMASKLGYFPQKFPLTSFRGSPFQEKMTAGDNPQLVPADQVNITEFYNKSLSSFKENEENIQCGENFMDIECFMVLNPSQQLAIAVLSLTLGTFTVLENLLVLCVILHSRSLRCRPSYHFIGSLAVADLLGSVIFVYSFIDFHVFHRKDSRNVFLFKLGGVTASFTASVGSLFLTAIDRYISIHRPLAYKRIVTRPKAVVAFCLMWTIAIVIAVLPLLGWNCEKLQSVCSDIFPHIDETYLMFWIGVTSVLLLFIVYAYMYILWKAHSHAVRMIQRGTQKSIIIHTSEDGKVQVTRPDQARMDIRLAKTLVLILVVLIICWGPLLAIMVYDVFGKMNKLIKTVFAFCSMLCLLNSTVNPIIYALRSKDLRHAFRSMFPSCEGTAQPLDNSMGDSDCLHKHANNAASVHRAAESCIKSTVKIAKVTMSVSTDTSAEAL
Test [4] concerns the target T3, Cannabinoid receptor 2 (Homo sapiens, UniProt P34972). Description: SAR analysis of antagonists of the Cannabinoid Receptor 2 using an Image-Based Assay - Set 3. [Related pubchem assays (depositor defined):AID2013, AID2026]. It is filed as functional.
Test [5] has as its target T1, G-protein coupled receptor 35. Nature of the test: SAR analysis of Agonists of the GPR35 Receptor using an Image-Based Assay - Set 4. [Related pubchem assays (depositor defined):AID2013, AID2026]. It is filed as functional.
The target of test [6] is T4, G-protein coupled receptor 55 (Homo sapiens, UniProt Q9Y2T6). Nature of the test: SAR Analysis of Selective Antagonists of GPR55 using an Image-Based Assay - Set 4. [Related pubchem assays (depositor defined):AID2013, AID2026]. It is filed as functional.
T4 sequence (Q9Y2T6 whole entry): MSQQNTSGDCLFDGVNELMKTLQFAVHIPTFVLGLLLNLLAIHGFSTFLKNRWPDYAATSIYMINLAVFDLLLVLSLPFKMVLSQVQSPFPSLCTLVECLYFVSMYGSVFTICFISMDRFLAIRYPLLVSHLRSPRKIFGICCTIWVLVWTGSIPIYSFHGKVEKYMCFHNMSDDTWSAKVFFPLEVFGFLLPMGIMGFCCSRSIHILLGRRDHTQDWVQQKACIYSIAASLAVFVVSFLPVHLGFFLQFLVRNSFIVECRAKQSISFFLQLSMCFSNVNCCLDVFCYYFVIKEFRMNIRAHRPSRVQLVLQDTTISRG
In test [7] the target is T3, Cannabinoid receptor 2. Description: SAR analysis of agonists of the Cannabinoid Receptor 2 using an Image-Based Assay - Set 3. [Related pubchem assays (depositor defined):AID2013, AID2026]. It is filed as functional.
The target of test [8] is T2, Cannabinoid receptor 1. Nature of the test: SAR analysis of agonists of the Cannabinoid Receptor 1 using an Image-Based Assay - Set 4. [Related pubchem assays (depositor defined):AID2013, AID2026]. It is filed as functional.
Test [9] relates to INS1. Nature of the test: beta cell apoptosis inhibitors, cytokine rescue, dose response, luminescence, retest (AID 449756).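 Note: cell death triggered by IL-1 beta plus TNF-alpha plus IFN-gamma mixture; protective hits raise ATP signal compared with cytokine alone wells.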 The following applies: Rattus norvegicus, INS1. In kind it is functional, cell-based.
For test [10], the target named is Exodeoxyribonuclease V (Escherichia coli (strain K12), UniProt P04993+P07648+P08394). Nature of the test: E. coli RecBCD inhibitors, dose response, counter-screen for AddAB inhibitor project, absorbance, V66 E. coli, mutant T4 phage (AID 492957). In kind it is functional, cell-based, Escherichia coli str. K-12 substr. MG1655.
Test [11] deals with Nonstructural protein 1 (Influenza A virus, UniProt Q194T2). It is filed as functional, Influenza A virus (A/California/07/2009(H1N1)).
Nonstructural protein 1, sequence (Q194T2 whole entry): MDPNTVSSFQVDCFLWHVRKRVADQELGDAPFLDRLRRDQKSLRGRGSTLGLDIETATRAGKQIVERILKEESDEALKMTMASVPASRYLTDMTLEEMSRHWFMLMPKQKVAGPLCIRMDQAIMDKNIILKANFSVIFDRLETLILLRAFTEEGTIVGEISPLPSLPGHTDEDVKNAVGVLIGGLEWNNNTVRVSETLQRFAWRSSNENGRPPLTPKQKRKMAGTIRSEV
Test [12] in a line: Counterscreen for AddAB inhibitors: absorbance-based bacterial cell-based high throughput dose response assay for inhibitors of bacterial viability. [Related pubchem assays (depositor defined):AID435030, AID449728, AID449731, AID488942, AID488955, AID488956]. In kind it is functional.
The target of test [13] is Intestinal-type alkaline phosphatase (Homo sapiens, UniProt P09923). Description: activation of human intestinal alkaline phosphatase – biochemical, dose response (AID 488873). In kind it is functional.
Intestinal-type alkaline phosphatase (Homo sapiens, UniProt P09923), sequence (P09923 whole entry): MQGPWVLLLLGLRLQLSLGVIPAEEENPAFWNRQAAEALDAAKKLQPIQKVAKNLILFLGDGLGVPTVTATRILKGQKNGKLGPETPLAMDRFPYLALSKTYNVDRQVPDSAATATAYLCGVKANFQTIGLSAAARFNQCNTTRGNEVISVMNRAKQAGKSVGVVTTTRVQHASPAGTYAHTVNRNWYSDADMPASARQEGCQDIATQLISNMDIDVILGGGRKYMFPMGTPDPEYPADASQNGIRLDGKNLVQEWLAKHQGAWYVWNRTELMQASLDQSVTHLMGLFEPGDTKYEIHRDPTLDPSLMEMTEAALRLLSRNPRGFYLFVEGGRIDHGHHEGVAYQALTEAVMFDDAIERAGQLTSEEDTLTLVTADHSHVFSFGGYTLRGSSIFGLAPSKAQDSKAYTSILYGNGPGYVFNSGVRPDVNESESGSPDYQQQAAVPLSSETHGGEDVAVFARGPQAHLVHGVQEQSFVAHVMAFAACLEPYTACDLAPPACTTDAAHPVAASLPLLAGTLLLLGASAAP
For test [14], the target named is Intestinal-type alkaline phosphatase (Mus musculus, UniProt P24822). Description: mouse intestinal alkaline phosphatase activators, dose response, biochemical, luminescence, uHTS hits (AID 488783). In kind it is functional.
Intestinal-type alkaline phosphatase (Mus musculus, UniProt P24822), sequence (P24822 whole entry): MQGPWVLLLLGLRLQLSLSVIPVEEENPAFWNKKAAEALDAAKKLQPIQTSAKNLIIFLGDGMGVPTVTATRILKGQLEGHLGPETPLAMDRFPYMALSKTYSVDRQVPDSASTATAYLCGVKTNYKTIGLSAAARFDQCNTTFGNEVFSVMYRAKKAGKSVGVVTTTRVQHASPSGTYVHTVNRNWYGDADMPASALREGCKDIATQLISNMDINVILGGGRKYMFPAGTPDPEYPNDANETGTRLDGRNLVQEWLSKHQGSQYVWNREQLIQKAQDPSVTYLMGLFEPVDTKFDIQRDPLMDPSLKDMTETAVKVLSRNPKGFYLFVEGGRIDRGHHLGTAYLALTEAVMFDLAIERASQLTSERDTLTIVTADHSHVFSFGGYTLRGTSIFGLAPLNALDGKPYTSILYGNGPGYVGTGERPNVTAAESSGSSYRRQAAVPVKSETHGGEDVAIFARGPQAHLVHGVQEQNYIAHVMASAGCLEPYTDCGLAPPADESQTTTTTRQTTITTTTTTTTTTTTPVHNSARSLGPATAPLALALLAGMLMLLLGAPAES
The target in test [15] is T5, Alkaline phosphatase, tissue-nonspecific isozyme (Homo sapiens, UniProt P05186).
T5 sequence (P05186 whole entry): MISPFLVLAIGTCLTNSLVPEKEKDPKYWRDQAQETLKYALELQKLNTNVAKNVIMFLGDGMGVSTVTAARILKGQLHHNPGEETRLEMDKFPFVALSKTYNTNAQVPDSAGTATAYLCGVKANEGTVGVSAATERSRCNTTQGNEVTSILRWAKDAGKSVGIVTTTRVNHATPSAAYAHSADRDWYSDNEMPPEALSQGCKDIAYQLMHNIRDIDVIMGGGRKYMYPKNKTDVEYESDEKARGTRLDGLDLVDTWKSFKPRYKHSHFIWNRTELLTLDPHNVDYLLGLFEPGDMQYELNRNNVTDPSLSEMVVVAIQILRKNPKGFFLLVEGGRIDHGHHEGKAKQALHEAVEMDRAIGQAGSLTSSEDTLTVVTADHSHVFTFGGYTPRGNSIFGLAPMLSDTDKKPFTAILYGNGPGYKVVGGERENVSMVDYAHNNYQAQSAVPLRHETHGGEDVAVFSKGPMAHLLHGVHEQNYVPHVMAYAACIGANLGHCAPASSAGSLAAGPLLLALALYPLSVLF
Nature of the test: TNAP enzyme activators, dose response, selectivity assay for mouse IAP activator project, biochemical, TNAP isozyme, mouse IAP uHTS hits (AID 488880). In kind it is functional.

Test [16] has as its target T6, Tyrosine-protein phosphatase non-receptor type 7 (Homo sapiens, UniProt P35236).
T6 sequence (P35236 whole entry): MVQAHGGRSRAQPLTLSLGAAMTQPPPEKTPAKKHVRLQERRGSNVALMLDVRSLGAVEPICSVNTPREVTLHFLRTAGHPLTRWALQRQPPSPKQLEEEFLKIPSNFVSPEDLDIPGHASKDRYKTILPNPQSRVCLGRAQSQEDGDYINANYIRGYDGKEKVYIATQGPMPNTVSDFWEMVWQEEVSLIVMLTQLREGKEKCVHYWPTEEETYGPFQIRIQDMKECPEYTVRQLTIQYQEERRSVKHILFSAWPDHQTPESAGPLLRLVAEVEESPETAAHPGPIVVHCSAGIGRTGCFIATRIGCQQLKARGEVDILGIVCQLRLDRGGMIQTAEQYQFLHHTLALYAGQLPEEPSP
Description: HePTP (PTPN7) phosphatase inhibitor potency, SAR follow-up, biochemical, set 2 (AID 449736). It is filed as functional.

Test [17] has as its target T7, Tyrosine-protein phosphatase non-receptor type 22 (Homo sapiens, UniProt Q9Y2R2).
T7 sequence (Q9Y2R2 whole entry): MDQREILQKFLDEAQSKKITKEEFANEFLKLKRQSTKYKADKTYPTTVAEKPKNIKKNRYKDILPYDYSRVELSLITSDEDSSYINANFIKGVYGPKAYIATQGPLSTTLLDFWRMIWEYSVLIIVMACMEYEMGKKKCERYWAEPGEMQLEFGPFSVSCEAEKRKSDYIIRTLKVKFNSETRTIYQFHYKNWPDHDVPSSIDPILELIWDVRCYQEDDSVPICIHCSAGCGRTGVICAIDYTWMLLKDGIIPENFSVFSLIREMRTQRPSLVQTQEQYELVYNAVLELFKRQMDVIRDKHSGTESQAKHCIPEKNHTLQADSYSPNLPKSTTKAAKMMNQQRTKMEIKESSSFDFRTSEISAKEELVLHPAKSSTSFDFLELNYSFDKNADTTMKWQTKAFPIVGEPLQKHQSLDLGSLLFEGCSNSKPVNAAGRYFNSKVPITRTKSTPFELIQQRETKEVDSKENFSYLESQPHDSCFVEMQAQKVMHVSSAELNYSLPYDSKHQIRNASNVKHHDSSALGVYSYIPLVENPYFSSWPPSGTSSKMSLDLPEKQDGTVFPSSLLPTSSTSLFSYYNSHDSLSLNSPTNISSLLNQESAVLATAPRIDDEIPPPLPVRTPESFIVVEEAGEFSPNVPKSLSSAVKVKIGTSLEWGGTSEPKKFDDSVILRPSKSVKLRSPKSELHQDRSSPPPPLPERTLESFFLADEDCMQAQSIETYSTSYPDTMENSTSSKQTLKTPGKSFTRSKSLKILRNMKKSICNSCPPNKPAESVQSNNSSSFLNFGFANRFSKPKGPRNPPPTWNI
Nature of the test: LYP (PTPN22) phosphatase inhibitor potency, SAR follow-up, biochemical, pCAP fluorogenic substrate, fluorescence, set 3 (AID 449727). It is filed as functional.

For test [18], the target named is T8, Tyrosine-protein phosphatase non-receptor type 12 (Homo sapiens, UniProt Q05209).
T8 sequence (Q05209 whole entry): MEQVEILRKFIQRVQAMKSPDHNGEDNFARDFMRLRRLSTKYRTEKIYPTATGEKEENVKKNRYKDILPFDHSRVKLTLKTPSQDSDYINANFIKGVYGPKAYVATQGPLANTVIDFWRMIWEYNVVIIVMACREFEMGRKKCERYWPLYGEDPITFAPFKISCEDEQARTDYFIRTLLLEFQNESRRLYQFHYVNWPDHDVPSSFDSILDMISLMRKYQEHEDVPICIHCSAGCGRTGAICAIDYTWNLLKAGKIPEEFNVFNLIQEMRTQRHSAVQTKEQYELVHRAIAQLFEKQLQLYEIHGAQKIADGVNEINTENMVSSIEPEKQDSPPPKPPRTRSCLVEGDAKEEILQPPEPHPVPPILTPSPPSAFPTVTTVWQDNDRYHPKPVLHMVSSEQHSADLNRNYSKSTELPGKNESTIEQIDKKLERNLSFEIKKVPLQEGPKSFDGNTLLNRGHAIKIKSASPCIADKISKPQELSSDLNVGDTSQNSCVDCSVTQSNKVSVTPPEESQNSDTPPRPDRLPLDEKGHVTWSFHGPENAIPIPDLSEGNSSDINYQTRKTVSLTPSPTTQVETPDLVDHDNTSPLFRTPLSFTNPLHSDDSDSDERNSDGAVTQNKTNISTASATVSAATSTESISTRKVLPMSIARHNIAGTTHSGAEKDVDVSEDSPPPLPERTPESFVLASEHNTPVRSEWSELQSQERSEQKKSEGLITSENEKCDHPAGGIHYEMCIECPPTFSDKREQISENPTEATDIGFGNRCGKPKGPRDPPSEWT
Nature of the test: SAR Selectivity Analysis of small molecule inhibitors of PEST using pCAP in a fluorescence assay. [Related pubchem assays (depositor defined):AID1779, AID1784, AID2135]. It is filed as functional.

The target of test [19] is T4, G-protein coupled receptor 55. Nature of the test: GPR55 antagonists, SAR follow-up, counter-screen for GPR35 antagonist project, imaging, image-based (AID 2397). In kind it is functional.
Test [20] deals with T1, G-protein coupled receptor 35. Nature of the test: SAR Analysis for the identification of Selective Antagonists of ERK1/2 Activity in GPR35-Overexpressing U2OS Cells. [Related pubchem assays: 2079, 2058 ]. In kind it is functional, cell-based.
The target of test [21] is T7, Tyrosine-protein phosphatase non-receptor type 22. Description: SAR LYP1 Fluorescent Assay using OMFP substrate for In Vitro dose response studies - Set 3. [Related pubchem assays (depositor defined):AID1779, AID1784, AID2140, AID2686]. In kind it is functional.
Test [22] deals with CAAX prenyl protease 1 (Saccharomyces cerevisiae S288c, UniProt P47154). Description: Ste24 protease inhibitors, dose response, biochemical, S. cerevisiae, plate reader, cherry-pick (AID 488815).
CAAX prenyl protease 1, sequence (P47154 whole entry): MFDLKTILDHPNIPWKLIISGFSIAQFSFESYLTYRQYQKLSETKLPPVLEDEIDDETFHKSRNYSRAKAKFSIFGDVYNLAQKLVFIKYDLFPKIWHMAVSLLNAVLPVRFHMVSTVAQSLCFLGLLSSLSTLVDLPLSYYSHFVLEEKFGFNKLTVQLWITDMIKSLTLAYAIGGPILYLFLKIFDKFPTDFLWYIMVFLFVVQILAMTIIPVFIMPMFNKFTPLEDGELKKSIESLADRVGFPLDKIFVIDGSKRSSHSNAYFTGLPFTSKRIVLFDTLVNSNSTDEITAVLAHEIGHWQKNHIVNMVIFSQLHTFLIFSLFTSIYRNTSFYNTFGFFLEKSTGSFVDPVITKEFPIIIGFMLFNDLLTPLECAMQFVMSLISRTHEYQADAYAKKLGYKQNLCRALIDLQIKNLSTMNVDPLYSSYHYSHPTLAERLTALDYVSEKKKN
For test [23], the target named is T9, CAAX prenyl protease 2 (Saccharomyces cerevisiae S288c, UniProt Q03530).
T9 sequence (Q03530 whole entry): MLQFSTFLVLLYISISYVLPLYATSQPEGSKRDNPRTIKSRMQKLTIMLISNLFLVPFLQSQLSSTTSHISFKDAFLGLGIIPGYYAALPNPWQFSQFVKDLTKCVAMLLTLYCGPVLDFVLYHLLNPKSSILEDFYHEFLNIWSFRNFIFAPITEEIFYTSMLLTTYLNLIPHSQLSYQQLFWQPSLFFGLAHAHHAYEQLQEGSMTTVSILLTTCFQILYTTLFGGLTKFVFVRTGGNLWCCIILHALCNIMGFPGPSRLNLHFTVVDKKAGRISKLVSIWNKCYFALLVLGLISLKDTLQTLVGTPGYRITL
In kind it is biochemical.

T3 sequence (P34972 whole entry): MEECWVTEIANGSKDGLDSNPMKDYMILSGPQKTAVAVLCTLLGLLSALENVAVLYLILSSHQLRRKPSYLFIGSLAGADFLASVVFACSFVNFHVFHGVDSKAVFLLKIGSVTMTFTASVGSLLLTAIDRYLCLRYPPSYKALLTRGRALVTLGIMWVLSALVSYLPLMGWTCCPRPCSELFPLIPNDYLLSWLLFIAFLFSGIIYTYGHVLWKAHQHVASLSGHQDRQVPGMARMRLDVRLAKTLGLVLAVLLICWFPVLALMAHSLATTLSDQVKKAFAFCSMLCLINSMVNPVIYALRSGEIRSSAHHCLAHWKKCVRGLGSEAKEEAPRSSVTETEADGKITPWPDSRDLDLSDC

Regarding `Cc1ccc(N=Cc2sccc2C)cc1C`, the IC50 in [1] was > 100 µM (inactive).

Turning to `COc1ccc(-c2c(-c3ccc(OCCN4CCOCC4)cc3O)n[nH]c2C)cc1`, the IC50 in test [2] was > 32 µM (inactive); in [3], 3.78 µM (active); in test [4], 26.8 µM (inactive); in test [6], > 32 µM (inactive). Besides, the EC50 in test [5], in [7] and in test [8] was > 32 µM (inactive) in each case.

Regarding `Nc1c(Cl)ncnc1N/N=C/c1ccc2ccccc2n1`, the AC50 in test [9] was 0.825 µM (active). Moreover, the IC50 in [10] was > 119 µM (inactive); in [11] it was 8.42 µM (active); in test [12], > 119 µM (inactive).

For the molecule `Cc1ccc(NC(=O)CN(C)S(=O)(=O)c2ccc3[nH]c(=O)oc3c2)c(C)c1`, the EC50 in [13] is 61.3 µM (active); in [14] it was 57.9 µM (active); in test [15], 73.1 µM (active).

`COc1ccc(/C=C2\SC(=S)N(CCCC(=O)Nc3ccc(C(=O)O)c(O)c3)C2=O)cc1OC`: the IC50 in test [16] is 9.74 µM (active); in [17], 58.5 µM (active); in test [18], 17.9 µM (active); in test [19] it was > 32 µM (inactive); in test [20], 0.522 µM (active); in test [21], > 100 µM (inactive).

For the molecule `Cc1cc(C)c2cc(C#N)c(NCCCNC(=O)CCC(=O)O)nc2c1`, the AC50 is 29.9 µM (active) in [22] and 36.9 µM (active) in test [23].
